Results reported in patent US20230372273A1, “IONIC LIQUID COMPOSITIONS FOR SKIN DISEASES AND CONDITIONS” (CAGE BIO, INC., priority 2020, published 2023).

Tests used:
[1] = cited from earlier work
Recombinant human KLK5 = target: T1, Recombinant human KLK5 (Homo sapiens, UniProt Q9Y337); test: hKLK5 enzymatic assay; type: biochemical; settings: substrate S-2288, OD 405 nm, 37° C.; read-out: IC50 against hKLK5
T1 construct: purchased Speed Biosystems LLC YS1485
T1 sequence (Q9Y337 23-293): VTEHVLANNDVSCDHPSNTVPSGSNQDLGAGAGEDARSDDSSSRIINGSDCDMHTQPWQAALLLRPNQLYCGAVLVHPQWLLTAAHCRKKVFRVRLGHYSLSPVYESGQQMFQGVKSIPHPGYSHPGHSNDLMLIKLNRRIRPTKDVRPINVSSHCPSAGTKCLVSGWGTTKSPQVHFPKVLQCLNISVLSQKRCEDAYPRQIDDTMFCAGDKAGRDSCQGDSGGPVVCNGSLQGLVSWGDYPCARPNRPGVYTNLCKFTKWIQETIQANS
Experimental: hKLK5 Enzymatic Assay. Test compound CAGE1:2 (87.07% w/v) was diluted to 0.99 mM and control compound Aprotinin was prepared at 6 μM in di-water. A 2-fold serial dilution was then performed in di-water to generate 10 concentrations for CAGE1:2 (87.07% w/v) and 8 concentrations for Aprotinin which were 2× of the final concentrations in the reaction. Recombinant human KLK5 was purchased from Speed Biosystems LLC (Catalog No. YS1485, Lot No. 0330517, 17.2 μM). The substrate S-2288 was purchased from Diapharma Group, Inc (Catalog No. S820852, Lot No. N0889942).
The assay was carried out in 384-well clear bottom plate coated with 0.1% Tween 20 at 4° C. overnight and washed twice with di-water before usage. 50 μL 2× compound in water was mixed with 25 μL 4× hKLK5 enzyme (120 nM) prepared in 2× reaction buffer (100 mM Tris, pH 8.0, 200 mM NaCl, 0.2% PEG, 0.01% Tween 20, 2 mM EDTA). The enzymatic reaction was initiated by the addition of 25 μL 4× substrate S-2288 (2 mM) in 2× reaction buffer to all wells. OD 405 nm was measured every 30 seconds by SpetraMax 384 Plus at 37° C. for 1 hour.

[2] = Human cadaver skin permeation (Franz cells); type: in vitro ADME
Experimental: Human cadaver skin permeation evaluation. Dermatomed full thickness human cadaver skin samples, 250-350 μm, were mounted onto static Franz cells. […] Phosphate buffered saline (PBS), pH 7.4 was used as the receptor medium. CGB400 gel was applied to the stratum corneum side of the skin samples at a dose of 15 μL/cm^2 ( 15 mg/cm^2). The cells were kept in a chamber at 37 C for a period of 24 h. […] in the receptor chamber ensured that the receptor media was well mixed during this time. The receptor media was sampled at 4, 7, and 24 hours to quantify the amount of choline and geranic acid permeation. After 24 hours, the skin surface was washed before removing the stratum corneum (SC) by tape stripping. […] Following SC removal, the epidermis was separated from the dermis using a surgical sterile scalpel and the dermis was cut into pieces. Each layer was collected separately in glass vials containing 2 mL of 50:50 water:methanol mixture and was left to shake overnight to extract the choline and geranic acid. The amount of choline and geranic acid was measured using LC-MS/MS in the wash, epidermis, dermis, and the receptor medium.

[3] = test system: Propionibacterium acnes clinical isolates

For CC(C)=CCC/C(C)=C/C(=O)O [geranic acid, 3,7-dimethyl-2,6-octadienoic acid], the “Log P” value [1] is given as 2.8.
For Choline geranate [CAGE1:2], the IC50 (Recombinant human KLK5) was ~30 mM, the “applied dose penetrated into the dermis” value [2] was “About 9.5%” and the “estimated epidermal CAGE concentration” value [2] was ~76 mM. The “molar ratio of choline to geranic acid in the epidermis” value [2] was 1.18, the “effective concentration for antibacterial activity” value [3] was < 0.45 mM and the “Minimum Inhibitory Concentration (MIC)” value ([3]; P. acnes isolates, 48 hours) was 0.025-0.2 % of neat CAGE1:2.
